Measured values published in patent US20090143311A1, “Compositions comprising tripeptides inhibiting ace” (priority 2005, published 2009).

Legend:
ACE [1] = experiment: at-line ACE inhibition assay; format: biochemical; details: HHL substrate, PBS pH 7.4, 60 minutes at 50° C.
Description: The presence of novel ACE inhibiting peptides in CDBAP was investigated by using 2-dimensional-chromatographic-separation combined with an at-line ACE inhibition assay and mass spectrometry for identification. In the first analysis the peptide mixture was separated on an ODS3 liquid chromatography (LC) column and ACE inhibition profiles were generated from the various fractions obtained. In a second analysis the fractions from the first column showing a high ACE inhibition were further separated on a Biosuite LC column using a different gradient profile. The fractions collected from this second column were split into two parts: one part was used for the at-line ACE inhibition measurement while the other part was subjected to MS and MS-MS analysis to identify the peptides present. […]
The 96 well plate was then analysed on a flash-HPLC-column. […] Hippuric acid (H) and HHL were monitored at 280 nm. The peak heights of H and HHL were measured and the ACE inhibition (ACEI) of each fraction was calculated according to the equation: […]
The Degree of Cleavage was calculated by expressing the peak height of H as a fraction of the sum of the peak heights of H and HHL.

ACE [2] = experiment: modified Matsui ACE inhibition assay; format: biochemical
Description: Quantification of MAP and ITP in the various samples was performed on a Micromass Quattro II MS instrument operated in the positive electrospray, multiple reaction monitoring mode. The HPLC method used was similar to the one described above. The MS settings (ESI+) were as follows: cone voltage 37 V, capillary voltage 4 kV, drying gas nitrogen at 300 l/h. Source and nebulizer temperature: 100° C. and 250° C., respectively. The synthesized peptides were used to prepare a calibration line using the precursor ion 318.1 and the summed product ions […] for MAP and using the precursor ion 320.2 and the summed product ions […] for ITP. According to these analyses the novel ACE inhibiting tripeptides MAP and ITP are present in the CDBAP product in quantities corresponding with 2.9 mg MAP/gram CDBAP or 4.8 mg MAP/gram protein in CDBAP and 0.9 mg ITP/gram CDBAP en 1.4 mg ITP/gram protein in CDBAP. […]
Each one of the four samples contained 75 μl 3 mM hippuryl histidine leucine (Hip-His-Leu, Sigma) dissolved in a 250 mM borate solution containing 200 mM NaCl, pH 8.3. […] After incubation for 20 min. at 37° C., 4 ml 4 mM Na2SO3 in 0.2 M NaH2PO4 was added and the light absorbance at 416 nm was measured with UV/Vis spectrophotometer (Shimadzu UV-1601 with a CPS controller, Netherlands). […]

ACE [3] = molecular target: ACE (Homo sapiens, UniProt P12821); details: literature (Nakamura 1995; Aryoshi 1993); read-out: IC50 values reported earlier; cited from earlier work
ACE (Homo sapiens, UniProt P12821), sequence (P12821 30-1306, species assumed): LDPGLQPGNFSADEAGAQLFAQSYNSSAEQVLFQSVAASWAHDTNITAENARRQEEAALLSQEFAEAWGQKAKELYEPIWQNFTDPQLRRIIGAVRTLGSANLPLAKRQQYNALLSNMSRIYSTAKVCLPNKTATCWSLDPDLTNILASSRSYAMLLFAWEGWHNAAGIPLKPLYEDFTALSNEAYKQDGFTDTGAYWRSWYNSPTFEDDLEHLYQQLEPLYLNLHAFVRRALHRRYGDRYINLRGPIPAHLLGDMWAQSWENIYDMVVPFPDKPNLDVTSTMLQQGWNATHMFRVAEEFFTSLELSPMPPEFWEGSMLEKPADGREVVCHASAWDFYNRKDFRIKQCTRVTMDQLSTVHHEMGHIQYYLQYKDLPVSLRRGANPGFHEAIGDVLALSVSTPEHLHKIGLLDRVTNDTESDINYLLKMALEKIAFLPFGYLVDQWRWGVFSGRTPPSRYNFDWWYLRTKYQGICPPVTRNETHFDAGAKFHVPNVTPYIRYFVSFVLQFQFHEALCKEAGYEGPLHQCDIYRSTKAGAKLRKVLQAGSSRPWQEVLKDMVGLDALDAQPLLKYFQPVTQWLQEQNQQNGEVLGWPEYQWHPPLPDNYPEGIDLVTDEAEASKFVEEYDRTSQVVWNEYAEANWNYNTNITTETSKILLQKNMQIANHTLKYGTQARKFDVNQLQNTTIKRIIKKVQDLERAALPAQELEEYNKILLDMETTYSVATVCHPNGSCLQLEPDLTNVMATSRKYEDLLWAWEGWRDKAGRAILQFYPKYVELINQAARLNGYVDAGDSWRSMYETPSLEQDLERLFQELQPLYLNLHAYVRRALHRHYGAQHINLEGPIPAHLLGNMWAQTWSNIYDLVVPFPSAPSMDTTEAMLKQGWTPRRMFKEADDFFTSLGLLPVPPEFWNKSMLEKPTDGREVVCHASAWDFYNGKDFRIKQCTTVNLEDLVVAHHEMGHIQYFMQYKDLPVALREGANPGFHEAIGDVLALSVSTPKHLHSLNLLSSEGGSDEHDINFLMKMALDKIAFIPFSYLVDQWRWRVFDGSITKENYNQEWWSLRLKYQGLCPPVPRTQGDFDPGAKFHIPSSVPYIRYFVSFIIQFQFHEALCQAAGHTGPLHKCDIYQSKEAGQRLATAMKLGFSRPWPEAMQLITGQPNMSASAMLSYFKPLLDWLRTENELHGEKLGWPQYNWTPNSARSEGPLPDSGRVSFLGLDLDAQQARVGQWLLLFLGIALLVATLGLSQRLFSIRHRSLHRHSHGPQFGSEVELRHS

Row | IC50 (ACE [1]) | IC50 (ACE [2]; chemically synthesized peptides, Hip-His-Leu, pH 8.3, 37° C., 30 min, read-out: IC50 value Modified Matsui assay) | IC50 (ACE [2]; read-out: IC50 value in Modified Matsui test) | Substance | IC50 (ACE [3])
1 | 7.1 µM | 2 µM | 2 µM | IPP: known ACE inhibiting tripeptide, kappa-casein f108-110; chemically synthesized IPP used as internal reference | 5 µM
2 | – | – | – | LPP: known ACE inhibiting tripeptide, β-casein f151-153 (UniProt P02666 166-168, looked up, fragment) | 9.6 µM
